Where “and” joins values, the source holds several entries; their conditions need not be identical. Equal values may be shown once. Inconclusive results and toxic doses are left out.
Test system: L1210 leukemia ip in BDF1 mice, survival T/C
Test: NCI In Vivo Anticancer Drug Screen. Data for tumor model L1210 Leukemia (intraperitoneal) in B6D2F1 (BDF1) mice
Conditions: endpoint: mean survival time, higher = longer survival
Method in brief: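 Read-out is survival time, reported as the treated-group measurement over the vehicle-control measurement.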

[1] = dose: 100.0 mg/kg/injection, schedule: Q04DX002 (ip), vehicle: Klucel (hydroxypropylcellulose) (HPC)
[2] = dose: 200.0 mg/kg/injection, schedule: Q04DX002 (ip), vehicle: Klucel (hydroxypropylcellulose) (HPC)
[3] = dose: 75.0 mg/kg/injection, schedule: Q01DX001 (ip), vehicle: saline
[4] = dose: 150.0 mg/kg/injection, schedule: Q01DX001 (ip), vehicle: saline
[5] = dose: 300.0 mg/kg/injection, schedule: Q01DX001 (ip), vehicle: saline
[6] = dose: 100.0 mg/kg/injection, schedule: Q01DX009 (ip), vehicle: saline with Tween-80
[7] = dose: 100.0 mg/kg/injection, schedule: Q04DX003 (ip), vehicle: saline with Tween-80
[8] = dose: 200.0 mg/kg/injection, schedule: Q01DX009 (ip), vehicle: saline with Tween-80
[9] = dose: 200.0 mg/kg/injection, schedule: Q04DX003 (ip), vehicle: saline with Tween-80
[10] = dose: 400.0 mg/kg/injection, schedule: Q04DX002 (ip), vehicle: Klucel (hydroxypropylcellulose) (HPC)
[11] = dose: 100.0 mg/kg/injection, schedule: Q01DX009 (ip), vehicle: Klucel (hydroxypropylcellulose) (HPC)
[12] = dose: 200.0 mg/kg/injection, schedule: Q01DX009 (ip), vehicle: Klucel (hydroxypropylcellulose) (HPC)
[13] = dose: 100.0 mg/kg/injection, schedule: Q01DX001 (ip), vehicle: Klucel (hydroxypropylcellulose) (HPC)
[14] = dose: 200.0 mg/kg/injection, schedule: Q01DX001 (ip), vehicle: Klucel (hydroxypropylcellulose) (HPC)
[15] = dose: 400.0 mg/kg/injection, schedule: Q01DX001 (ip), vehicle: Klucel (hydroxypropylcellulose) (HPC)
[16] = dose: 50.0 mg/kg/injection, schedule: Q04DX002 (ip), vehicle: Klucel (hydroxypropylcellulose) (HPC)
[17] = dose: 400.0 mg/kg/injection, schedule: Q04DX003 (ip), vehicle: saline with Tween-80
[18] = dose: 100.0 mg/kg/injection, schedule: Q01DX001 (ip), vehicle: saline
[19] = dose: 200.0 mg/kg/injection, schedule: Q01DX001 (ip), vehicle: saline
[20] = dose: 50.0 mg/kg/injection, schedule: Q01DX009 (ip), vehicle: Klucel (hydroxypropylcellulose) (HPC)

CC(c1ccccc1C(=O)O)c1ccc(Br)c2ccccc12 (centres undefined)
T/C (dose: 50.0 mg/kg/injection, schedule: Q04DX003 (ip), vehicle: Klucel (hydroxypropylcellulose) (HPC)): 93 % of control | T/C (dose: 100.0 mg/kg/injection, schedule: Q04DX003 (ip), vehicle: Klucel (hydroxypropylcellulose) (HPC)): 108 % of control | T/C (dose: 200.0 mg/kg/injection, schedule: Q04DX003 (ip), vehicle: Klucel (hydroxypropylcellulose) (HPC)): 98 % of control

O=C(c1ccccc1CO)N1CCCCC1
T/C [1]: 112 % of control | T/C [2]: 105 % of control

CCCC1(CC(C)CC)C(=O)NC(=O)NC1=O (centres undefined)
T/C [3]: 100 % of control | T/C [4]: 96 % of control | T/C [5]: 98 % of control

O=c1[nH]ccc2c(O)cccc12
T/C (dose: 50.0 mg/kg/injection, schedule: Q01DX009 (ip), vehicle: saline with Tween-80): 95 % of control | T/C (dose: 50.0 mg/kg/injection, schedule: Q04DX003 (ip), vehicle: saline with Tween-80): 101 % of control | T/C [6]: 97 % of control | T/C [7]: 101 % of control | T/C [8]: 90 % of control | T/C [9]: 94 % of control

O=C(/C=C/c1ccco1)c1ccc(O)cc1
T/C [1]: 101 % of control | T/C [2]: 90 % of control | T/C [10]: 93 % of control

CCCCCCCCCCCCCCCCOCCCCCCCCCCCCCCCC
T/C [11]: 96 % of control | T/C (dose: 100.0 mg/kg/injection, schedule: Q04DX003 (ip), vehicle: other): 103 % of control | T/C [12]: 100 % of control | T/C (dose: 200.0 mg/kg/injection, schedule: Q04DX003 (ip), vehicle: other): 88 % of control | T/C (dose: 400.0 mg/kg/injection, schedule: Q01DX009 (ip), vehicle: Klucel (hydroxypropylcellulose) (HPC)): 91 % of control | T/C (dose: 400.0 mg/kg/injection, schedule: Q04DX003 (ip), vehicle: other): 95 % of control

CCn1c(=S)[nH]c(/C=N/N(CCO)CCO)c(C)c1=O
T/C (dose: 100.0 mg/kg/injection, schedule: Q01DX001 (ip), vehicle: saline with Tween-80): 103 % of control | T/C (dose: 200.0 mg/kg/injection, schedule: Q01DX001 (ip), vehicle: saline with Tween-80): 103 % of control | T/C (dose: 400.0 mg/kg/injection, schedule: Q01DX001 (ip), vehicle: saline with Tween-80): 95 % of control

Cc1ccccc1NC(=O)Oc1ccc2ccccc2c1
T/C [1]: 106 % of control | T/C [2]: 103 % of control | T/C [10]: 106 % of control

CC(=O)Nc1nc(C)c(CCCOc2ccc([N+](=O)[O-])cc2)c(Cl)n1
T/C [13]: 100 % of control | T/C [14]: 97 % of control | T/C [15]: 97 % of control

Cc1cc(C)c(N(CC(=O)O)S(=O)(=O)c2ccccc2)c(Sc2ccccc2)c1
T/C [13]: 113 % of control | T/C [14]: 98 % of control | T/C [15]: 100 % of control

COc1ccc(OC)c(NC(=S)N/N=C(/C)c2cc([N+](=O)[O-])c(O)cc2O)c1
T/C (dose: 12.5 mg/kg/injection, schedule: Q04DX002 (ip), vehicle: Klucel (hydroxypropylcellulose) (HPC)): 102 % of control | T/C (dose: 25.0 mg/kg/injection, schedule: Q04DX002 (ip), vehicle: Klucel (hydroxypropylcellulose) (HPC)): 102 % of control | T/C [16]: 105 % of control

O=C(N/N=C\c1ccc(F)cc1)N/N=C/c1ccc(F)cc1
T/C (dose: 100.0 mg/kg/injection, schedule: Q04DX002 (ip), vehicle: saline with Tween-80): 93 % of control | T/C (dose: 200.0 mg/kg/injection, schedule: Q04DX002 (ip), vehicle: saline with Tween-80): 96 % of control | T/C (dose: 400.0 mg/kg/injection, schedule: Q04DX002 (ip), vehicle: saline with Tween-80): 104 % of control

Cc1ccc(Nc2n[nH]c(=S)s2)cc1C
T/C [6]: 93 % of control | T/C [8]: 92 % of control | T/C (dose: 400.0 mg/kg/injection, schedule: Q01DX009 (ip), vehicle: saline with Tween-80): 106 % of control

Cc1ccc([P+](Cc2ccccc2)(c2ccccc2)c2ccc(C)cc2)cc1
T/C (dose: 15.0 mg/kg/injection, schedule: Q01DX001 (ip), vehicle: saline): 96 % of control

C/C=C/Sc1ccccc1
T/C (dose: 75.0 mg/kg/injection, schedule: Q01DX001 (ip), vehicle: carboxymethylcellulose (CMC)): 95 % of control | T/C (dose: 150.0 mg/kg/injection, schedule: Q01DX001 (ip), vehicle: carboxymethylcellulose (CMC)): 101 % of control | T/C (dose: 300.0 mg/kg/injection, schedule: Q01DX001 (ip), vehicle: carboxymethylcellulose (CMC)): 98 % of control

COC(=O)C1=C(C)NC(=S)NC1c1ccco1 (centres undefined)
T/C [7]: 95 % of control | T/C [9]: 97 % of control | T/C [17]: 97 % of control

O=C(C1C2C=CC(CC2)C1C(=O)N1CCCCC1)N1CCCCC1 (centres undefined)
T/C [7]: 96 % of control | T/C [9]: 100 % of control | T/C [17]: 96 % of control

CN=C(Nc1ccccc1C)SC
T/C (dose: 50.0 mg/kg/injection, schedule: Q04DX003 (ip), vehicle: saline): 100 % of control | T/C [18]: 98 % of control | T/C (dose: 100.0 mg/kg/injection, schedule: Q04DX003 (ip), vehicle: saline): 100 % of control | T/C [19]: 102 % of control | T/C (dose: 200.0 mg/kg/injection, schedule: Q04DX003 (ip), vehicle: saline): 106 % of control

CC(Oc1cc(Cl)c(Cl)cc1Cl)C(=O)OCCCc1ccccn1 (centres undefined)
T/C [20]: 106 % of control | T/C [11]: 100 % of control and 111 % of control | T/C [1]: 103 % of control | T/C [12]: 114 % of control | T/C [2]: 107 % of control | T/C [10]: 90 % of control

C=CCN(CC=C)P(N(CC=C)CC=C)N(CC=C)CC=C
T/C (dose: 75.0 mg/kg/injection, schedule: Q01DX009 (ip), vehicle: saline): 98 % of control | T/C (dose: 150.0 mg/kg/injection, schedule: Q01DX009 (ip), vehicle: saline): 96 % of control

CN(C(=O)N(CCCl)N=O)C1CCC(C(=O)O)CC1 (centres undefined)
T/C (dose: 12.0 mg/kg/injection, schedule: Q01DX009 (ip), vehicle: alkali diluted with saline): 95 % of control | T/C (dose: 18.0 mg/kg/injection, schedule: Q01DX009 (ip), vehicle: alkali diluted with saline): 103 % of control | T/C (dose: 24.0 mg/kg/injection, schedule: Q01DX001 (ip), vehicle: saline + Tween-80 + alkali): 93 % of control | T/C (dose: 26.0 mg/kg/injection, schedule: Q01DX009 (ip), vehicle: alkali diluted with saline): 103 % of control | T/C (dose: 36.0 mg/kg/injection, schedule: Q01DX001 (ip), vehicle: saline + Tween-80 + alkali): 98 % of control | T/C (dose: 40.0 mg/kg/injection, schedule: Q01DX009 (ip), vehicle: alkali diluted with saline): 111 % of control | T/C (dose: 54.0 mg/kg/injection, schedule: Q01DX001 (ip), vehicle: saline + Tween-80 + alkali): 98 % of control | T/C (dose: 60.0 mg/kg/injection, schedule: Q01DX009 (ip), vehicle: alkali diluted with saline): 119 % of control | T/C (dose: 80.0 mg/kg/injection, schedule: Q01DX001 (ip), vehicle: saline + Tween-80 + alkali): 104 % of control | T/C (dose: 120.0 mg/kg/injection, schedule: Q01DX001 (ip), vehicle: saline + Tween-80 + alkali): 113 % of control | T/C (dose: 180.0 mg/kg/injection, schedule: Q01DX001 (ip), vehicle: saline + Tween-80 + alkali): 121 % of control | T/C (dose: 400.0 mg/kg/injection, schedule: Q01DX001 (ip), vehicle: saline + Tween-80 + alkali): 180 % of control

CC(C)(C)C(=O)OCN1CCOCC1
T/C [3]: 106 % of control | T/C [4]: 103 % of control | T/C [5]: 108 % of control

CC[C@@H]1C[C@@H]2CN3CCc4c([nH]c5ccc(OC)cc45)C(C(=O)OC)(C2)C13
T/C [20]: 89 % of control | T/C [11]: 94 % of control | T/C [12]: 89 % of control

CCCCC(=O)N/N=C/c1ccc(Cl)c([N+](=O)[O-])c1
T/C [18]: 91 % of control | T/C [19]: 89 % of control | T/C (dose: 400.0 mg/kg/injection, schedule: Q01DX001 (ip), vehicle: saline): 91 % of control

NNc1nc2c(N)ncnc2n1C1OC(CO)C(O)C1O (centres undefined)
T/C (dose: 100.0 mg/kg/injection, schedule: Q01DX005 (ip), vehicle: saline): 104 % of control | T/C (dose: 200.0 mg/kg/injection, schedule: Q01DX005 (ip), vehicle: saline): 107 % of control

Clc1ccc2c(c1)C1c3ccccc3C2C2c3ccccc3C1c1ccccc12 (centres undefined)
T/C [16]: 117 % of control | T/C [1]: 102 % of control | T/C [2]: 95 % of control and 88 % of control | T/C [10]: 88 % of control

Reference: PubChem BioAssay AID248 (DTP/NCI, 2004)
